Patent publication US20190262261A1, “RADIATION SENSITIZER OR ANTI-CANCER CHEMOTHERAPY SENSITIZER” (priority 2006, published 2019)

Key:
[1] = Pain on intratumoral injection into SCCVII tumors of mice; type: in vivo, C3H/He mouse; settings: 1 ml, 27-gage needle, pH 6.8, 0.5% hydrogen peroxide, five mice per group, tumor about 10 mm
Experimental: (1) Mouse squamous epithelium cancer cells (SCCVII tumor cells) were transplanted into the right leg of the same kind of C3H/He mouse (8-week-old female), and the following experiment was conducted when the tumor had grown to about 10 mm in diameter.
When a 27-gage thin needle was used to intratumorally inject 1 ml of physiological saline (pH 6.8) containing 0.5% hydrogen peroxide into the tumors of five mice, the mice were all observed to feel strong pain, violently resisting the injection.

[2] = Pain on subcutaneous injection in normal volunteers; type: in vivo, human; settings: 1 ml subcutaneous, pH 6.8, 0.5% hydrogen peroxide
Experimental: (2) Based on the above results, the following experiment was conducted on five normal volunteers.
When a 27-gage thin needle was used to subcutaneously inject 1 ml of physiological saline (pH 6.8) containing 0.5% hydrogen peroxide into the inside of the left arms of five normal volunteers, all complained of severe pain limited to the injection site that lasted about 1 hour.

[3] = tested on: inoperable locally advanced malignant melanoma
Experimental: For a case of inoperable locally advanced malignant melanoma, sterilized cut cotton soaked in a hydrogen peroxide solution having a concentration of approximately 3 weight percent was used as a bolus, and irradiation by an electron beam from a linear accelerator (radiosensitization therapy) was then conducted.
Specifically, sterilized cut cotton soaked in a hydrogen peroxide solution having a concentration of approximately 3% was applied to the affected area of the locally advanced malignant melanoma as a bolus, and irradiation was conducted three times a week for four weeks, with each radiation dose amounting to 4 Gy (12 times, for a total radiation dosage of 48 Gy).

[4] = tested on: radioresistant osteosarcoma cell lines (HS-Os-1); settings: 0.1 mM in culture solution, radiation in the order of 10 Gy; cited from earlier work

SMILES: OO [hydrogen peroxide]
- pain of the intratumoral injection [1]: strong pain
- pain at the injection site ([2]; inside of arm, 27-gage needle, five volunteers): severe pain
- duration of pain at the injection site ([2]; left arm): about 1 hour
- length of malignant melanoma ([3]; 2 weeks after RT, approximately 3% solution on cut cotton as bolus, 4 Gy x 12, total 48 Gy, approximately 8 cm before radiotherapy): approximately 5 cm
- tumor outcome (summary in disclosure) ([3]; approximately 3 weight percent solution as bolus, 4 Gy three times a week, total 48 Gy): disappearance of the tumor
- tumor outcome ([3]; three months after termination of radiotherapy, approximately 3% solution as bolus, total 48 Gy): almost disappeared
- effect on irradiated cells (reactive oxygen species, apoptosis) [4]: giving rise to apoptosis
